Measurements from US20060069123A1, “Substituted dipiperidine CCR2 antagonists” (priority 2004, published 2006).
Where two headings read alike, the source gives them in different places.

Experiments:
THP-1 cells [1] = assay: MCP-1 Induced Chemotaxis in THP-1 Cells; format: cell-based; settings: read-out: Inhibition of MCP-1 Induced Chemotaxis IC50
THP-1 cells [2] = test system: THP-1 cells
CCR2 = target: T1, CCR2 (Homo sapiens, UniProt P41597); settings: for Inhibition of MCP-1 Binding, percent inhibition: test concentration of 25 μM, IC50 not obtained
T1 sequence (P41597 1-360 isoform P41597-2): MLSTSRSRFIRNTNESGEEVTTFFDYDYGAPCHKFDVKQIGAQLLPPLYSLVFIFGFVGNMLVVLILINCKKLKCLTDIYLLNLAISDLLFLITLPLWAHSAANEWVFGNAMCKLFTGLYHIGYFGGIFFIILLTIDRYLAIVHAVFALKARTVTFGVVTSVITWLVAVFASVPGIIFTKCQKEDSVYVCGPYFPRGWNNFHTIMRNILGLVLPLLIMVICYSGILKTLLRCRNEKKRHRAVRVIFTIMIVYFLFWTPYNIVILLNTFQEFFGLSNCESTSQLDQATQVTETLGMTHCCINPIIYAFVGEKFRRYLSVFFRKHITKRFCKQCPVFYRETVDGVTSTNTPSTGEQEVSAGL

[3] = Homo sapiens, THP-1, read-out: Inhibition of MCP-1 Induced Calcium Ion Influx IC50
[4] = Homo sapiens, THP-1 cells, MCP-1 0.01 μg/mL, 3 hours
[5] = THP-1 cells, MCP-1 0.01 μg/mL, 3 hours
[6] = read-out: Inhibition of MCP-1 Induced Calcium Ion Influx IC50, THP-1 cells, 0.2 μM MCP-1, FLIPR
[7] = Homo sapiens, THP-1, read-out: Inhibition of MCP-1 Induced Calcium Ion Influx IC50, THP-1 cells, 0.2 μM MCP-1, FLIPR

| SMILES | IC50 (THP-1 cells [2]; [3]) [nM] | IC50 (THP-1 cells [1]; [4]) [nM] | IC50 (CCR2) [nM] | also measured |
| --- | --- | --- | --- | --- |
| O=C(O)[C@@H](C1CCN(C(=O)/C=C/c2cc(F)c(F)c(F)c2)CC1)N1CCC(c2c[nH]c3ccccc23)CC1 [Cpd 14] | 1130 | – | – | IC50 (THP-1 cells [1]; Homo sapiens, THP-1, 3 h): 70 nM |
| O=C(O)C(C1CCN(C(=O)Nc2cc(F)cc(C(F)(F)F)c2)CC1)N1CCC(c2c[nH]c3ccccc23)CC1 (stereo not shown) [Cpd 65, [1-(3-fluoro-5-trifluoromethyl-phenylcarbamoyl)-piperidin-4-yl]-[4-(1H-indol-3-yl)-piperidin-1-yl]-acetic acid] | 120 | 1600 | 353 | – |
| COC(=O)C(C1CCN(C(=O)/C=C/c2cc(F)c(F)c(F)c2)CC1)N1CCC(c2c[nH]c3ccccc23)CC1 (stereo not shown) [Cpd 87, [4-(1H-indol-3-yl)-piperidin-1-yl]-{1-[(2E)-3-(3,4,5-trifluoro-phenyl)-acryloyl]-piperidin-4-yl}-acetic acid methyl ester] | 360 | – | – | IC50 (THP-1 cells [1]; Homo sapiens, THP-1, 3 h): 1000 nM |
| O=C(O)C(C1CCN(C(=O)Nc2ccc(Cl)cc2)CC1)N1CCC(c2c[nH]c3ccccc23)CC1 (stereo not shown) [Cpd 88, [1-(4-chloro-phenylcarbamoyl)-piperidin-4-yl]-[4-(1H-indol-3-yl)-piperidin-1-yl]-acetic acid] | 410 | 240 | – | – |
| O=C(O)C(C1CCN(C(=O)Nc2ccc(Br)cc2)CC1)N1CCC(c2c[nH]c3ccccc23)CC1 (stereo not shown) [Cpd 89, [1-(4-bromo-phenylcarbamoyl)-piperidin-4-yl]-[4-(1H-indol-3-yl)-piperidin-1-yl]-acetic acid] | 470 | 210 | 95 | – |
| O=C(O)C(C1CCN(C(=O)Nc2cccc(F)c2)CC1)N1CCC(c2c[nH]c3ccccc23)CC1 (stereo not shown) [Cpd 91, [1-(3-fluoro-phenylcarbamoyl)-piperidin-4-yl]-[4-(1H-indol-3-yl)-piperidin-1-yl]-acetic acid] | 890 | 270 | 305 | – |
| O=C(O)C(C1CCN(C(=O)Nc2cccc(C(F)(F)F)c2)CC1)N1CCC(c2c[nH]c3ccccc23)CC1 (stereo not shown) [Cpd 97, [4-(1H-indol-3-yl)-piperidin-1-yl]-[1-(3-trifluoromethyl-phenylcarbamoyl)-piperidin-4-yl]-acetic acid] | 970 | 230 | 250 | – |
| Cc1cccc(NC(=O)N2CCC(C(C(=O)O)N3CCC(c4c[nH]c5ccccc45)CC3)CC2)c1 (stereo not shown) [Cpd 98, [4-(1H-indol-3-yl)-piperidin-1-yl]-(1-m-tolylcarbamoyl-piperidin-4-yl)-acetic acid] | 1850 | 2200 | 890 | – |
| Cc1ccc(NC(=O)N2CCC(C(C(=O)O)N3CCC(c4c[nH]c5ccccc45)CC3)CC2)cc1 (stereo not shown) [Cpd 99, [4-(1H-indol-3-yl)-piperidin-1-yl]-(1-p-tolylcarbamoyl-piperidin-4-yl)-acetic acid] | 1600 | 2500 | 810 | – |
| Cc1ccc(NC(=O)N2CCC(C(C(=O)O)N3CCC(c4c[nH]c5ccccc45)CC3)CC2)cc1C (stereo not shown) [Cpd 100, [1-(3,4-dimethyl-phenylcarbamoyl)-piperidin-4-yl]-[4-(1H-indol-3-yl)-piperidin-1-yl]-acetic acid] | 480 | – | – | IC50 (THP-1 cells [1]; Homo sapiens, THP-1, 3 h): 940 nM |
| Cc1cc(NC(=O)N2CCC(C(C(=O)O)N3CCC(c4c[nH]c5ccccc45)CC3)CC2)ccc1Br (stereo not shown) [Cpd 101, [1-(4-bromo-3-methyl-phenylcarbamoyl)-piperidin-4-yl]-[4-(1H-indol-3-yl)-piperidin-1-yl]-acetic acid] | 130 | 140 | 20 | – |
| Cc1cc(NC(=O)N2CCC(C(C(=O)O)N3CCC(c4c[nH]c5ccccc45)CC3)CC2)ccc1F (stereo not shown) [Cpd 102, [1-(4-fluoro-3-methyl-phenylcarbamoyl)-piperidin-4-yl]-[4-(1H-indol-3-yl)-piperidin-1-yl]-acetic acid] | 860 | 230 | 260 | – |
| O=C(O)C(C1CCN(C(=O)/C=C/c2cccs2)CC1)N1CCC(c2c[nH]c3ccccc23)CC1 (stereo not shown) [Cpd 103, [4-(1H-indol-3-yl)-piperidin-1-yl]-{1-[(2E)-3-thiophen-2-yl-acryloyl]-piperidin-4-yl}-acetic acid] | 490 | 90 | 70 | – |
| O=C(O)C(C1CCN(C(=O)/C=C/c2ccsc2)CC1)N1CCC(c2c[nH]c3ccccc23)CC1 (stereo not shown) [Cpd 104, [4-(1H-indol-3-yl)-piperidin-1-yl]-{1-[(2E)-3-thiophen-3-yl-acryloyl]-piperidin-4-yl}-acetic acid] | 1010 | 160 | 90 | – |
| O=C(/C=C/c1cccc(C(F)(F)F)c1)N1CCC(C(CO)N2CCC(c3c[nH]c4ccccc34)CC2)CC1 (stereo not shown) [Cpd 119, (2E)-1-(4-{2-hydroxy-1-[4-(1H-indol-3-yl)-piperidin-1-yl]-ethyl}-piperidin-1-yl)-3-(3-trifluoromethyl-phenyl)-propenone] | 8 | 10 | – | – |
| COc1ccc2c(C3CCN(C(CO)C4CCN(C(=O)/C=C/c5cc(F)c(F)c(F)c5)CC4)CC3)c[nH]c2c1 (stereo not shown) [Cpd 132, (2E)-1-(4-{2-hydroxy-1-[4-(6-methoxy-1H-indol-3-yl)-piperidin-1-yl]-ethyl}-piperidin-1-yl)-3-(3,4,5-trifluoro-phenyl)-propenone] | – | – | – | IC50 (THP-1 cells [1]; [5]): 70 nM; IC50 (THP-1 cells [2]; [6]): 3 nM |
| COc1ccc2c(C3CCN(C(CO)C4CCN(C(=O)/C=C/c5cc(F)c(F)c(F)c5)CC4)CC3)c[nH]c2c1 (stereo not shown) [Cpd 167, (2E)-1-(4-{2-hydroxy-1-[4-(6-methoxy-1H-indol-3-yl)-piperidin-1-yl]-ethyl}-piperidin-1-yl)-3-(3,4,5-trifluoro-phenyl)-propenone] | – | – | – | IC50 (THP-1 cells [1]; [5]): 30 nM; IC50 (THP-1 cells [2]; [6]): 30 nM |
| O=C(/C=C/c1ccc(Cl)c(Cl)c1)N1CCC(C(CO)N2CCC(c3c[nH]c4ncccc34)CC2)CC1 (stereo not shown) [Cpd 208, (2E)-3-(3,4-dichloro-phenyl)-1-(4-{2-hydroxy-1-[4-(1H-pyrrolo[2,3-b]pyridin-3-yl)-piperidin-1-yl]-ethyl}-piperidin-1-yl)-propenone] | – | – | – | IC50 (THP-1 cells [1]; Homo sapiens, THP-1, 3 h, THP-1 cells, MCP-1 0.01 μg/mL, 3 hours): 13 nM; IC50 (THP-1 cells [2]; [7]): 0.8 nM |
| CC(=O)NCC(C1CCN(C(=O)/C=C/c2cc(F)c(F)c(F)c2)CC1)N1CCC(c2c[nH]c3ccccc23)CC1 (stereo not shown) [Cpd 213, N-(2-[4-(1H-indol-3-yl)-piperidin-1-yl]-2-{1-[(2E)-3-(3,4,5-trifluoro-phenyl)-acryloyl]-piperidin-4-yl}-ethyl)-acetamide] | 90 | 170 | – | – |
| NC(=O)C(C1CCN(C(=O)/C=C/c2cc(F)c(F)c(F)c2)CC1)N1CCC(c2c[nH]c3ncccc23)CC1 (stereo not shown) [Cpd 227, 2-[4-(1H-pyrrolo[2,3-b]pyridin-3-yl)-piperidin-1-yl]-2-{1-[(2E)-3-(3,4,5-trifluoro-phenyl)-acryloyl]-piperidin-4-yl}-acetamide] | – | – | – | IC50 (CCR2; Inhibition of MCP-1 Binding IC50, 125I labeled MCP-1 binding to CCR2, THP-1 cells): 960 nM; IC50 (THP-1 cells [2]; [7]): 870 nM |
| CCNC(=O)NCC(C1CCN(C(=O)/C=C/c2ccc(F)c(Br)c2)CC1)N1CCC(c2c[nH]c3ccccc23)CC1 (stereo not shown) [Cpd 233] | 1800 | – | 660 | – |
| O=C(C=Cc1ccc(Cl)c(Cl)c1)N1CCC(C(CO)N2CCC(c3ccc(Cl)cc3)CC2)CC1 (stereo not shown) [Cpd 244, (2E)-1-(4-{1-[4-(4-chloro-phenyl)-piperidin-1-yl]-2-hydroxy-ethyl}-piperidin-1-yl)-3-(3,4-dichloro-phenyl)-propenone] | 80 | – | 260 | – |
| O=C(/C=C/c1ccc(Cl)c(Cl)c1)N1CCC(C(CCl)N2CCC(c3ccc(Cl)cc3)CC2)CC1 (stereo not shown) [Cpd 245] | 400 | – | 2170 | – |
| O=C(C=Cc1cc(F)c(F)c(F)c1)N1CCC(C(CO)N2CCC(c3ccc(Cl)cc3)CC2)CC1 (stereo not shown) [Cpd 246, (2E)-1-(4-{1-[4-(4-chloro-phenyl)-piperidin-1-yl]-2-hydroxy-ethyl}-piperidin-1-yl)-3-(3,4,5-trifluoro-phenyl)-propenone] | 20 | – | 70 | – |
| COc1ccc(C2CCN(C(CO)C3CCN(C(=O)C#Cc4cc(F)c(F)c(F)c4)CC3)CC2)cc1 (stereo not shown) [Cpd 253, 1-(4-{2-hydroxy-1-[4-(4-methoxy-phenyl)-piperidin-1-yl]-ethyl}-piperidin-1-yl)-3-(3,4,5-trifluoro-phenyl)-propynone] | – | – | – | Inhibition of MCP-1 Binding, percent inhibition (CCR2): 42%; IC50 (THP-1 cells [2]; [6]): 3900 nM |
| O=C(/C=C/c1cc(F)cc(F)c1)N1CCC(C(CO)N2CCC(c3nc4cc(Cl)c(Cl)cc4[nH]3)CC2)CC1 (stereo not shown) [Cpd 256, (2E)-1-(4-{1-[4-(5,6-dichloro-1H-benzoimidazol-2-yl)-piperidin-1-yl]-2-hydroxy-ethyl}-piperidin-1-yl)-3-(3,5-difluoro-phenyl)-propenone] | – | – | – | Inhibition of MCP-1 Binding, percent inhibition (CCR2): 25%; IC50 (THP-1 cells [2]; [6]): 11000 nM |
| O=C(/C=C/c1ccc(Cl)cc1)N1CCC(C(CO)N2CCC(c3ccc(Cl)cc3)CC2)CC1 (stereo not shown) [Cpd 258, (2E)-3-(4-chloro-phenyl)-1-(4-{1-[4-(4-chloro-phenyl)-piperidin-1-yl]-2-hydroxy-ethyl}-piperidin-1-yl)-propenone] | 2300 | – | 200 | – |
